Results on 24 molecules are retold here after patent publication US20230365592A1 (Agios Pharmaceuticals, Inc., priority 2022, published 2023).

The structures appear in SMILES notation.

For this experiment, the target named is T1, human PAH with the R408W mutation (Homo sapiens, UniProt P00439, R408W).
T1 construct: expressed in transfected cells
T1 sequence (P00439 1-452 R408W): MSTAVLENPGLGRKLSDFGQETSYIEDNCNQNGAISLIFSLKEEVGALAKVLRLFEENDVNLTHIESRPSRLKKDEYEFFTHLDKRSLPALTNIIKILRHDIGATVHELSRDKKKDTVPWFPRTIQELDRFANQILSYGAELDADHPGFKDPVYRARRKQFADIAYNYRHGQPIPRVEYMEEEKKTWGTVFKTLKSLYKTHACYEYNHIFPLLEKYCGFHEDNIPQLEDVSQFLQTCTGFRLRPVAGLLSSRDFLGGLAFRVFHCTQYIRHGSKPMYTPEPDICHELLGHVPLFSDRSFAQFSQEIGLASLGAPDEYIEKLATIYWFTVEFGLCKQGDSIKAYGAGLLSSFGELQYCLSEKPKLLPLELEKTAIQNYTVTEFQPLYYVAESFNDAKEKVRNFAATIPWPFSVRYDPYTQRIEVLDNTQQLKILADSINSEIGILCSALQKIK
Briefly: Cell Based Phenylalanine Flux Assay.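 Further: after compound treatment, cells received sepiapterin plus isotope-labelled Phenylalanine for 4 hours, then labelled Tyrosine in the medium was quantified, 10-point 2-fold dilution series run in duplicate.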 The note with it: A375 cells expressing human R408W PAH; 24 hrs compound incubation; 13C-Tyrosine by LC-MS; average where tested multiple times; read-out: AC50.

A word on the AC50: it is the concentration giving half of the maximal activity seen. Turning to `Cc1cccn2nc([C@@H]3c4nc[nH]c4CCN3C(=O)c3nnc(-c4ccn(C(F)(F)F)n4)o3)cc12` [Example 1478, (S)-(4-(4-methylpyrazolo[1,5-a]pyridin-2-yl)-6,7-dihydro-1H-imidazo[4,5-c]pyridin-5(4H)-yl)(5-(1-(trifluoromethyl)-1H-pyrazol-3-yl)-1,3,4-oxadiazol-2-yl)methanone], the AC50 was < 500 nM.

Regarding `O=C(c1nnc(-c2ccn(C(F)(F)F)n2)o1)N1CCc2[nH]cnc2[C@H]1c1cc2c(C(F)F)cccn2n1` [Example 1480, (S)-(4-(4-(difluoromethyl)pyrazolo[1,5-a]pyridin-2-yl)-6,7-dihydro-1H-imidazo[4,5-c]pyridin-5(4H)-yl)(5-(1-(trifluoromethyl)-1H-pyrazol-3-yl)-1,3,4-oxadiazol-2-yl)methanone], the AC50 is < 500 nM.

On to `O=C(c1nnc(-c2ccn(C(F)(F)F)n2)o1)N1CCc2[nH]cnc2[C@@H]1c1cc2c(C(F)F)cccn2n1` [Example 1481, (R)-(4-(4-(difluoromethyl)pyrazolo[1,5-a]pyridin-2-yl)-6,7-dihydro-1H-imidazo[4,5-c]pyridin-5(4H)-yl)(5-(1-(trifluoromethyl)-1H-pyrazol-3-yl)-1,3,4-oxadiazol-2-yl)methanone], for which the AC50 lay in the range of 1000 to 5000 nM.

As to `CC(C)c1nnc(C(=O)N2CCc3[nH]cnc3[C@@H]2c2cc3c(Cl)cccn3n2)o1` [Example 1485, (R)-(4-(4-chloropyrazolo[1,5-a]pyridin-2-yl)-6,7-dihydro-1H-imidazo[4,5-c]pyridin-5(4H)-yl)(5-isopropyl-1,3,4-oxadiazol-2-yl)methanone], the AC50 was 1000 to 5000 nM.

Take `CC(C)c1nnc(C(=O)N2CCc3[nH]cnc3[C@H]2c2cc3c(C(F)(F)F)cccn3n2)o1` [Example 1486, (S)-(5-isopropyl-1,3,4-oxadiazol-2-yl)(4-(4-(trifluoromethyl)pyrazolo[1,5-a]pyridin-2-yl)-6,7-dihydro-1H-imidazo[4,5-c]pyridin-5(4H)-yl)methanone]: the AC50 is < 500 nM.

For `CC(C)c1nnc(C(=O)N2CCc3[nH]cnc3[C@@H]2c2cc3c(C(F)(F)F)cccn3n2)o1` [Example 1487, (R)-(5-isopropyl-1,3,4-oxadiazol-2-yl)(4-(4-(trifluoromethyl)pyrazolo[1,5-a]pyridin-2-yl)-6,7-dihydro-1H-imidazo[4,5-c]pyridin-5(4H)-yl)methanone], the AC50 was > 5000 nM.

Regarding `CC(C)c1nnc(C(=O)N2CCc3[nH]cnc3[C@H]2c2cc3cccc(Cl)n3n2)o1` [Example 1488, (S)-(4-(7-chloropyrazolo[1,5-a]pyridin-2-yl)-6,7-dihydro-1H-imidazo[4,5-c]pyridin-5(4H)-yl)(5-isopropyl-1,3,4-oxadiazol-2-yl)methanone], the AC50 is < 500 nM.

Consider `Cc1cccc2cc([C@H]3c4nc[nH]c4CCN3C(=O)c3nnc(C(C)C)o3)nn12` [Example 1491, (R)-(5-isopropyl-1,3,4-oxadiazol-2-yl)(4-(7-methylpyrazolo[1,5-a]pyridin-2-yl)-6,7-dihydro-1H-imidazo[4,5-c]pyridin-5(4H)-yl)methanone], for which the AC50 was 1000 to 5000 nM.

Take `CC(C)c1nnc(C(=O)N2CCc3[nH]cnc3[C@H]2c2cc3cccc(C(F)F)n3n2)o1` [Example 1492, (S)-(4-(7-(difluoromethyl)pyrazolo[1,5-a]pyridin-2-yl)-6,7-dihydro-1H-imidazo[4,5-c]pyridin-5(4H)-yl)(5-isopropyl-1,3,4-oxadiazol-2-yl)methanone]: the AC50 was 500 to 1000 nM.

As for `CC(C)c1nnc(C(=O)N2CCc3[nH]cnc3[C@@H]2c2cc3cccc(C(F)F)n3n2)o1` [Example 1493, (R)-(4-(7-(difluoromethyl)pyrazolo[1,5-a]pyridin-2-yl)-6,7-dihydro-1H-imidazo[4,5-c]pyridin-5(4H)-yl)(5-isopropyl-1,3,4-oxadiazol-2-yl)methanone], the AC50 lay within 1000 to 5000 nM.

As for `Cc1ncccc1-c1nnc(C(=O)N2CCc3[nH]cnc3[C@H]2c2cc3cccc(F)n3n2)o1` [Example 1494, (S)-(4-(7-fluoropyrazolo[1,5-a]pyridin-2-yl)-6,7-dihydro-1H-imidazo[4,5-c]pyridin-5(4H)-yl)(5-(2-methylpyridin-3-yl)-1,3,4-oxadiazol-2-yl)methanone], the AC50 is < 500 nM.

In the case of `Cc1ncccc1-c1nnc(C(=O)N2CCc3[nH]cnc3[C@@H]2c2cc3cccc(F)n3n2)o1` [Example 1495, (R)-(4-(7-fluoropyrazolo[1,5-a]pyridin-2-yl)-6,7-dihydro-1H-imidazo[4,5-c]pyridin-5(4H)-yl)(5-(2-methylpyridin-3-yl)-1,3,4-oxadiazol-2-yl)methanone], the AC50 was > 5000 nM.

As to `Cc1cccc(-c2nnc(C(=O)N3CCc4[nH]cnc4[C@H]3c3cc4cccc(F)n4n3)o2)n1` [Example 1496, (S)-(4-(7-fluoropyrazolo[1,5-a]pyridin-2-yl)-6,7-dihydro-1H-imidazo[4,5-c]pyridin-5(4H)-yl)(5-(6-methylpyridin-2-yl)-1,3,4-oxadiazol-2-yl)methanone], the AC50 was < 500 nM.

Consider `Cc1cccc(-c2nnc(C(=O)N3CCc4[nH]cnc4[C@@H]3c3cc4cccc(F)n4n3)o2)n1` [Example 1497, (R)-(4-(7-fluoropyrazolo[1,5-a]pyridin-2-yl)-6,7-dihydro-1H-imidazo[4,5-c]pyridin-5(4H)-yl)(5-(6-methylpyridin-2-yl)-1,3,4-oxadiazol-2-yl)methanone], for which the AC50 is 1000 to 5000 nM.

Turning to `O=C(c1nnc(-c2ncccn2)o1)N1CCc2[nH]cnc2[C@H]1c1cc2cccc(C(F)F)n2n1` [Example 1499, (S)-(4-(7-(difluoromethyl)pyrazolo[1,5-a]pyridin-2-yl)-6,7-dihydro-1H-imidazo[4,5-c]pyridin-5(4H)-yl)(5-(pyrimidin-2-yl)-1,3,4-oxadiazol-2-yl)methanone], the AC50 fell in the range of 500 to 1000 nM.

With `Cc1ncccc1-c1nnc(C(=O)N2CCc3[nH]cnc3[C@H]2c2cc3cccc(C(F)F)n3n2)o1` [Example 1500, (S)-(4-(7-(difluoromethyl)pyrazolo[1,5-a]pyridin-2-yl)-6,7-dihydro-1H-imidazo[4,5-c]pyridin-5(4H)-yl)(5-(2-methylpyridin-3-yl)-1,3,4-oxadiazol-2-yl)methanone], the concentration at half-maximal activity (AC50) was < 500 nM.

Consider `Cc1ncccc1-c1nnc(C(=O)N2CCc3[nH]cnc3[C@@H]2c2cc3cccc(C(F)F)n3n2)o1` [Example 1501, (R)-(4-(7-(difluoromethyl)pyrazolo[1,5-a]pyridin-2-yl)-6,7-dihydro-1H-imidazo[4,5-c]pyridin-5(4H)-yl)(5-(2-methylpyridin-3-yl)-1,3,4-oxadiazol-2-yl)methanone], for which the AC50 was > 5000 nM.

As for `O=C(c1nnc(-c2cnn(C(F)(F)F)c2)o1)N1CCc2[nH]cnc2[C@@H]1c1cc2cccc(C(F)F)n2n1` [Example 1503, (R)-(4-(7-(difluoromethyl)pyrazolo[1,5-a]pyridin-2-yl)-6,7-dihydro-1H-imidazo-[4,5-c]pyridin-5(4H)-yl)(5-(1-(trifluoromethyl)-1H-pyrazol-4-yl)-1,3,4-oxadiazol-2-yl)methanone], the AC50 is > 5000 nM.

In the case of `O=C(c1nnc(-c2cnn(C(F)(F)F)c2)o1)N1CCc2[nH]cnc2[C@H]1c1cc2c(Cl)cccn2n1` [Example 1504, (S)-(4-(4-chloropyrazolo[1,5-a]pyridin-2-yl)-6,7-dihydro-1H-imidazo[4,5-c]pyridin-5(4H)-yl)(5-(1-(trifluoromethyl)-1H-pyrazol-4-yl)-1,3,4-oxadiazol-2-yl)methanone], the AC50 was < 500 nM.

Take `O=C(c1nnc(-c2ccn(C(F)(F)F)n2)o1)N1CCc2[nH]cnc2[C@H]1c1cc2ccccn2n1` [Example 1506, (S)-(4-(pyrazolo[1,5-a]pyridin-2-yl)-6,7-dihydro-1H-imidazo[4,5-c]pyridin-5(4H)-yl)(5-(1-(trifluoromethyl)-1H-pyrazol-3-yl)-1,3,4-oxadiazol-2-yl)methanone]: the concentration at half-maximal activity (AC50) is < 500 nM.

For `O=C(c1nnc(-c2ccn(C(F)(F)F)n2)o1)N1CCc2[nH]cnc2[C@@H]1c1cc2ccccn2n1` [Example 1507, (R)-(4-(pyrazolo[1,5-a]pyridin-2-yl)-6,7-dihydro-1H-imidazo[4,5-c]pyridin-5(4H)-yl)(5-(1-(trifluoromethyl)-1H-pyrazol-3-yl)-1,3,4-oxadiazol-2-yl)methanone], the AC50 was > 5000 nM.

As for `O=C(c1nnc(-c2ccn(C(F)(F)F)n2)o1)N1CCc2[nH]cnc2[C@H]1c1cc2c(C(F)(F)F)cccn2n1` [Example 1512, (S)-(5-(1-(trifluoromethyl)-1H-pyrazol-3-yl)-1,3,4-oxadiazol-2-yl)(4-(4-(trifluoromethyl)pyrazolo[1,5-a]pyridin-2-yl)-6,7-dihydro-1H-imidazo[4,5-c]pyridin-5(4H)-yl)methanone], the AC50 is < 500 nM.

With `O=C(c1nnc(-c2ccn(C(F)(F)F)n2)o1)N1CCc2[nH]cnc2[C@@H]1c1cc2c(C(F)(F)F)cccn2n1` [Example 1513, (R)-(5-(1-(trifluoromethyl)-1H-pyrazol-3-yl)-1,3,4-oxadiazol-2-yl)(4-(4-(trifluoromethyl)pyrazolo[1,5-a]pyridin-2-yl)-6,7-dihydro-1H-imidazo[4,5-c]pyridin-5(4H)-yl)methanone], the AC50 lay in the range of 1000 to 5000 nM.

For the molecule `O=C(c1nnc(C2CCC2)o1)N1CCc2[nH]cnc2[C@H]1c1cc2ccccn2n1` [Example 1514, (S)-(5-cyclobutyl-1,3,4-oxadiazol-2-yl)(4-(pyrazolo[1,5-a]pyridin-2-yl)-6,7-dihydro-1H-imidazo[4,5-c]pyridin-5(4H)-yl)methanone], the AC50 was < 500 nM.
